The text below walks through data of ChEMBL document CHEMBL1201862, “PubChem BioAssay data set” (2004).

A word on the GI50: it is the concentration giving 50% growth inhibition.

Test systems include EKVX; SNB-19; U-251; COLO 205; CCRF-CEM; OVCAR-5; NCI-H522; SF-295; SF-268; OVCAR-3; DMS-114; KM12; SNB-75; SNB-78; MDA-MB-435; Hs-578T; MDA-N; MCF7; PC-3; NCI/ADR-RES.
What all share (assay): DTP human tumour cell line panel, 48 h

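Each compound was tested at five concentrations against cells in 96-well plates for 48 hours. Abbreviation: GI50, concentration required for 50% inhibition of growth.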 Calls of active or inactive are those of the source. No stated cut-off is given here; in the data, active = GI50 up to about 1.1 µM and inactive = higher. Bounds are passed on as bounds.

`N#C/C(=C\c1ccc(CP(=O)(O)O)cc1)C(N)=O`: the GI50 in the assay with EKVX, with SNB-19, in the assay on U-251, in the assay with COLO 205, with CCRF-CEM and in the assay on OVCAR-5 was > 100 µM (inactive) throughout. For the same molecule, the GI50 in the assay with NCI-H522, in the assay with SF-295, in the assay with SF-268, with OVCAR-3, with DMS-114 and in the assay with KM12 was > 100 µM (inactive) each time.
In the case of `O=C1c2ccccc2C(=O)N1CCCOCc1cnc(O)nc1O`, the GI50 with EKVX, in the assay with SNB-19, with U-251, with COLO 205, in the assay with CCRF-CEM and in the assay on OVCAR-5 was > 100 µM (inactive) in each case. Also, the GI50 in the assay with NCI-H522, with SF-295, with SNB-75, with SF-268, with OVCAR-3 and in the assay with DMS-114 was > 100 µM (inactive) each time. For the same molecule, in the assay on KM12, the GI50 was > 100 µM (inactive).
In the case of `COc1ccc([C@@H]2C[C@@H]3C(=O)OC(=O)[C@@H]3c3c2c2ccccc2n3C)cc1`, the GI50 with EKVX, with SNB-19, in the assay on COLO 205, in the assay on CCRF-CEM, in the assay with NCI-H522 and in the assay with SF-295 was > 100 µM (inactive) each time. For the same molecule, the GI50 with SNB-75, with SF-268, in the assay on OVCAR-3, with DMS-114 and with KM12 was > 100 µM (inactive) throughout.
Consider `COC(=O)C(C(=O)OC)C1CCCC(=O)C1` (stereo not drawn), for which the GI50 in the assay with EKVX, in the assay with SNB-19, with U-251, in the assay with COLO 205, in the assay on CCRF-CEM and with OVCAR-5 was > 100 µM (inactive) in each case. Further, the GI50 with SF-295, with SNB-75, with SNB-78, in the assay on SF-268, in the assay with OVCAR-3 and with KM12 was > 100 µM (inactive) in each case.
Turning to `O=C1C2=C(CC3C(C2)C3(Br)Br)C(=O)C2=C1CC1C(C2)C1(Br)Br` (stereo not drawn), the GI50 in the assay with EKVX was > 100 µM (inactive); in the assay with SNB-19, > 100 µM (inactive); in the assay on U-251, > 100 µM (inactive); with COLO 205 it was > 100 µM (inactive); in the assay with CCRF-CEM, 61.9 µM (inactive); in the assay with OVCAR-5 it was > 100 µM (inactive). In addition, the GI50 in the assay with NCI-H522 was 34.6 µM (inactive); in the assay with SF-295 it was > 100 µM (inactive); with SNB-75, > 100 µM (inactive); in the assay with SNB-78, > 100 µM (inactive); in the assay with SF-268, > 100 µM (inactive); in the assay with OVCAR-3, > 100 µM (inactive). Moreover, the GI50 in the assay with KM12 is > 100 µM (inactive).
Regarding `CC[N+](CC)(CC)Cc1cn(S(=O)(=O)c2ccccc2)c2ccccc12`, the GI50 in the assay on SNB-19, with U-251, in the assay with COLO 205, with CCRF-CEM, in the assay on OVCAR-5 and with NCI-H522 was > 100 µM (inactive) throughout. The GI50 in the assay on SF-295 is > 100 µM (inactive); in the assay on SNB-75, 40.7 µM (inactive); in the assay with SF-268, > 100 µM (inactive); with OVCAR-3, > 100 µM (inactive); in the assay with DMS-114, > 100 µM (inactive); with KM12, > 100 µM (inactive).
Regarding `C=C1[C@H](OCC(C)C)[C@@H](OC(=O)C(C)CC)[C@@H](O)C(C)(C)/C=C/[C@H](C)C(=O)[C@@]2(O)C[C@H](C)[C@H](O)[C@@H]2[C@H]1OC(=O)C(C)CC` (stereo partly drawn), the GI50 was 1.7 µM (inactive) in the assay with MDA-MB-435; 8.83 µM (inactive) in the assay with EKVX; 14.5 µM (inactive) in the assay with SNB-19; 5.82 µM (inactive) with U-251; 1.66 µM (inactive) in the assay with Hs-578T; 0.904 µM (active) with COLO 205. Also, the GI50 was 0.564 µM (active) with CCRF-CEM; 1.26 µM (inactive) with MDA-N; 6.37 µM (inactive) with OVCAR-5; 8.63 µM (inactive) in the assay with NCI-H522; 2.39 µM (inactive) in the assay with SF-295; 1.41 µM (inactive) with SNB-75. Also, the GI50 in the assay on SF-268 is 4.78 µM (inactive); with OVCAR-3, 4.94 µM (inactive); in the assay with MCF7, 5.92 µM (inactive); in the assay with PC-3, 2.82 µM (inactive); in the assay on NCI/ADR-RES, 6.82 µM (inactive); with KM12 it was 5.41 µM (inactive).
Regarding `N#CC(c1ccccc1)(c1ccccc1)[C@@H](c1ccccc1)[C@H](Cc1ccccc1)NS(=O)(=O)c1ccccc1`, the GI50 in the assay with MDA-MB-435, in the assay with EKVX, in the assay with SNB-19, with U-251, with Hs-578T and with COLO 205 was > 100 µM (inactive) each time. Further, the GI50 in the assay on CCRF-CEM, in the assay on MDA-N, in the assay with OVCAR-5, in the assay on NCI-H522, in the assay on SF-295 and with SNB-75 was > 100 µM (inactive) each time. Further, the GI50 in the assay with SF-268 was > 100 µM (inactive); in the assay on OVCAR-3 it was > 100 µM (inactive); with MCF7 it was > 100 µM (inactive); in the assay on PC-3, 46.7 µM (inactive); with NCI/ADR-RES, > 100 µM (inactive); with KM12, > 100 µM (inactive).
For `COC1C(O)C(O[C@H]2CC[C@@]3(C)C(CC[C@@H]4[C@@H]3CC[C@]3(C)[C@@H](C(C)OC5OC(CO)C(O)C(O)C5O)CC[C@]43O)C2)OC(C)C1OC1OC(CO)C(O)C(O)C1O` (stereo partly drawn), the GI50 in the assay with MDA-MB-435, in the assay with EKVX, in the assay on SNB-19, with U-251, in the assay on Hs-578T and with COLO 205 was > 100 µM (inactive) throughout. Besides, the GI50 in the assay with CCRF-CEM, in the assay on MDA-N, in the assay on OVCAR-5, with NCI-H522, in the assay with SF-295 and in the assay with SNB-75 was > 100 µM (inactive) in each case. Besides, the GI50 with SF-268, with OVCAR-3, with MCF7, in the assay with PC-3, in the assay with NCI/ADR-RES and in the assay with KM12 was > 100 µM (inactive) throughout.
As to `CC1(C)C(O)c2ccccc2OC1N1CCN(C2Oc3ccccc3C(O)C2(C)C)CC1` (stereo not drawn), the GI50 with MDA-MB-435, in the assay on EKVX, in the assay on SNB-19, in the assay on U-251, with Hs-578T and with COLO 205 was > 100 µM (inactive) in each case. The GI50 in the assay with CCRF-CEM, with MDA-N, in the assay with OVCAR-5, in the assay with NCI-H522, with SF-295 and with SNB-75 was > 100 µM (inactive) each time. Further, the GI50 in the assay with SF-268, in the assay with OVCAR-3, with MCF7, in the assay on PC-3, with NCI/ADR-RES and with KM12 was > 100 µM (inactive) throughout.
As for `Cc1cccc(NC2=NC(=O)C(CC(=O)Nc3ccc(Cl)cc3C)S2)c1` (stereo not drawn), the GI50 in the assay with EKVX, with SNB-19, in the assay with COLO 205, in the assay on CCRF-CEM, in the assay with OVCAR-5 and with NCI-H522 was > 100 µM (inactive) each time. Besides, the GI50 with SF-295, in the assay with SNB-75, in the assay on SF-268, with OVCAR-3, with DMS-114 and with KM12 was > 100 µM (inactive) each time.
As for `CC1(C)COC(c2ccc(C(=O)c3ccc(Cl)cc3)cc2)=N1`, the GI50 in the assay on MDA-MB-435 was 44.5 µM (inactive); in the assay on EKVX, 44.6 µM (inactive); with SNB-19 it was > 100 µM (inactive); with U-251 it was > 100 µM (inactive); in the assay on Hs-578T, > 100 µM (inactive); in the assay on COLO 205, > 100 µM (inactive). For the same molecule, the GI50 in the assay on CCRF-CEM was > 100 µM (inactive); in the assay with MDA-N, > 100 µM (inactive); with OVCAR-5 it was > 100 µM (inactive); in the assay on NCI-H522, > 100 µM (inactive); with SF-295, 65.2 µM (inactive); in the assay on SNB-75 it was > 100 µM (inactive). The GI50 is > 100 µM (inactive) with SF-268; > 100 µM (inactive) with OVCAR-3; 86.5 µM (inactive) in the assay on MCF7; > 100 µM (inactive) in the assay on PC-3; 92.7 µM (inactive) with NCI/ADR-RES; > 100 µM (inactive) in the assay on KM12.
Consider `NS(=O)(=O)c1ccc(NC(=O)Nc2cccc3ccccc23)cc1`, for which the GI50 in the assay on MDA-MB-435 was 81.8 µM (inactive); in the assay on EKVX, 28.4 µM (inactive); in the assay on SNB-19, 21.1 µM (inactive); in the assay with U-251, 18.3 µM (inactive); in the assay with Hs-578T it was 42.2 µM (inactive); in the assay on COLO 205, 86.9 µM (inactive). Further, the GI50 in the assay on CCRF-CEM is > 100 µM (inactive); in the assay on MDA-N it was 54.8 µM (inactive); in the assay with OVCAR-5, > 100 µM (inactive); in the assay with NCI-H522 it was 19.4 µM (inactive); in the assay on SF-295, 35.6 µM (inactive); in the assay on SNB-75, 22.5 µM (inactive). In addition, the GI50 was 19.9 µM (inactive) in the assay on SF-268; 46.9 µM (inactive) in the assay on OVCAR-3; 31.2 µM (inactive) with MCF7; 20.2 µM (inactive) with PC-3; 46 µM (inactive) in the assay with NCI/ADR-RES; > 100 µM (inactive) with KM12.
